Some results are limits rather than exact numbers.

IC50 data for two compounds are collected here from patent US7273863B1, “Benzophenones as inhibitors of reverse transcriptase” (SmithKline Beecham Corporation, priority 1999, dated 2007).

The test system of test [1] is isogenic HIV-1 RT mutant virus K103N/G190A. The test is described as follows: HeLa cell assay (HIV-LTR β-galactosidase reporter). In kind it is cell-based. The settings on record: Human immunodeficiency virus 1, HeLa, read-out: IC50 (nM) Range. A digest of the protocol:
(§1)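 HeLa-CD4-LTR-β-gal cells, seeded overnight, were infected with isogenic recombinant HXB2 RT-mutant virus (50 to 70 total RLUs per well, DEAE-dextran) for 1.5 to 2 hours. Five-fold compound titrations (2 μM to 1 pM final, 0.1% DMSO) followed, with 72 h at 37° C. IC50 is chemiluminescent β-gal signal inhibition versus untreated controls.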

In test [2] the test system is isogenic HIV-1 RT mutant virus K103N/P225H. The experiment in a line: HeLa cell assay (HIV-LTR β-galactosidase reporter). The settings on record: Human immunodeficiency virus 1, HeLa, read-out: IC50 (nM) Range. In kind it is cell-based. A digest of the protocol:
as §1

Test [3] has as its system isogenic HIV-1 RT mutant virus V106A/Y181C. The experiment in a line: HeLa cell assay (HIV-LTR β-galactosidase reporter). To be noted: Human immunodeficiency virus 1, HeLa, read-out: IC50 (nM) Range. In kind it is cell-based. A digest of the protocol:
as §1

Test [4] relates to isogenic HIV-1 RT mutant virus Y181C. The test is described as follows: HeLa cell assay (HIV-LTR β-galactosidase reporter). In kind it is cell-based. The settings on record: Human immunodeficiency virus 1, HeLa, read-out: IC50 (nM) Range. A digest of the protocol: as §1
Test [5] concerns isogenic HIV-1 RT mutant virus K103N. The experiment in a line: HeLa cell assay (HIV-LTR β-galactosidase reporter). In kind it is cell-based. The settings on record: Human immunodeficiency virus 1, HeLa, read-out: IC50 (nM) Range. A digest of the protocol: as §1
Test [6] relates to isogenic HIV-1 RT mutant virus V106I/Y181C. The test is described as follows: HeLa cell assay (HIV-LTR β-galactosidase reporter). In kind it is cell-based. To be noted: Human immunodeficiency virus 1, HeLa, read-out: IC50 (nM) Range. A digest of the protocol:
as §1

Test [7] concerns isogenic HIV-1 RT mutant virus K103N/V108I. The test is described as follows: HeLa cell assay (HIV-LTR β-galactosidase reporter). In kind it is cell-based. The settings on record: Human immunodeficiency virus 1, HeLa, read-out: IC50 (nM) Range. A digest of the protocol:
as §1

Test [8] deals with isogenic HIV-1 RT mutant virus L100I. The test is described as follows: HeLa cell assay (HIV-LTR β-galactosidase reporter). To be noted: Human immunodeficiency virus 1, HeLa, read-out: IC50 (nM) Range. In kind it is cell-based. A digest of the protocol: as §1
For test [9], the system named is isogenic HIV-1 RT mutant virus P236L. The test is described as follows: HeLa cell assay (HIV-LTR β-galactosidase reporter). In kind it is cell-based. The settings on record: Human immunodeficiency virus 1, HeLa, read-out: IC50 (nM) Range. A digest of the protocol:
as §1

The test system of test [10] is isogenic HIV-1 RT mutant virus P225H. The test is described as follows: HeLa cell assay (HIV-LTR β-galactosidase reporter). In kind it is cell-based. To be noted: Human immunodeficiency virus 1, HeLa, read-out: IC50 (nM) Range. A digest of the protocol:
as §1

Test [11] has as its system isogenic HIV-1 RT mutant virus V106I. The experiment in a line: HeLa cell assay (HIV-LTR β-galactosidase reporter). The settings on record: Human immunodeficiency virus 1, HeLa, read-out: IC50 (nM) Range. In kind it is cell-based. A digest of the protocol:
as §1

Test [12] relates to isogenic HIV-1 RT mutant virus V108I. The test is described as follows: HeLa cell assay (HIV-LTR β-galactosidase reporter). In kind it is cell-based. The settings on record: Human immunodeficiency virus 1, HeLa, read-out: IC50 (nM) Range. A digest of the protocol:
as §1

Test [13] relates to isogenic HIV-1 RT mutant virus V108I/Y181C. The experiment in a line: HeLa cell assay (HIV-LTR β-galactosidase reporter). In kind it is cell-based. To be noted: Human immunodeficiency virus 1, HeLa, read-out: IC50 (nM) Range. A digest of the protocol:
as §1

Test [14] relates to isogenic HIV-1 RT mutant virus K103N/Y181C. The test is described as follows: HeLa cell assay (HIV-LTR β-galactosidase reporter). In kind it is cell-based. To be noted: Human immunodeficiency virus 1, HeLa, read-out: IC50 (nM) Range. A digest of the protocol: as §1
Test [15] concerns isogenic HIV-1 RT mutant virus G190A. The test is described as follows: HeLa cell assay (HIV-LTR β-galactosidase reporter). In kind it is cell-based. The settings on record: Human immunodeficiency virus 1, HeLa, read-out: IC50 (nM) Range. A digest of the protocol: as §1
Test [16] relates to NEV-R. The test is described as follows: MT4 cell assay, antiviral HIV activity (propidium iodide). In kind it is cell-based. The settings on record: Human immunodeficiency virus 1, MT4, read-out: IC50 (nM) Range.
Test [17] deals with WTRVA. The test is described as follows: HeLa cell assay (HIV-LTR β-galactosidase reporter). In kind it is cell-based, HIV-1. To be noted: Human immunodeficiency virus 1, Virus Type WTRVA, read-out: IC50 (nM) Range.

As for `CCc1cc(C#N)cc(C(=O)c2cc(Cl)ccc2OCC(=O)Nc2ccc(S(N)(=O)=O)cc2C)c1` [Compound 498], the IC50 – broadly, the concentration needed to halve the response being measured – is under 10 nM in test [1]; under 10 nM in test [2]; under 10 nM in test [3]; under 10 nM in test [4]; under 10 nM in test [5]; 11 to 100 nM in test [6]. For the same compound, the IC50 in [7], in [8], in test [9], in test [10], in test [11] and in [12] was under 10 nM in each case. In addition, the IC50 in [13], in [14], in test [15], in [16] and in [17] was under 10 nM each time.

`Cc1cc(S(N)(=O)=O)ccc1NC(=O)COc1ccc(Cl)cc1C(=O)c1cc(F)cc(C#N)c1` [Compound 491]: the IC50 in test [1] is 11 to 100 nM; in test [2], under 10 nM; in test [3] it was under 10 nM; in test [4], under 10 nM; in test [5], under 10 nM; in test [6], 11 to 100 nM. Further, the IC50 in test [7], in test [8], in [9], in [10], in test [11] and in test [12] was under 10 nM in each case. Besides, the IC50 in test [13], in test [14], in test [15], in test [16] and in test [17] was under 10 nM throughout.
